Key:
Beta-secretase 1 [1] = biological target: T1, Beta-secretase 1 (Homo sapiens, UniProt P56817); assay: Inhibition of BACE1 by HPLC method
Beta-secretase 1 [2] = biological target: T1, Beta-secretase 1; assay: Inhibition of BACE1 in human HEK293 cells expressing swedish mutant APP; type: cell-based

T1 sequence (P56817 whole entry): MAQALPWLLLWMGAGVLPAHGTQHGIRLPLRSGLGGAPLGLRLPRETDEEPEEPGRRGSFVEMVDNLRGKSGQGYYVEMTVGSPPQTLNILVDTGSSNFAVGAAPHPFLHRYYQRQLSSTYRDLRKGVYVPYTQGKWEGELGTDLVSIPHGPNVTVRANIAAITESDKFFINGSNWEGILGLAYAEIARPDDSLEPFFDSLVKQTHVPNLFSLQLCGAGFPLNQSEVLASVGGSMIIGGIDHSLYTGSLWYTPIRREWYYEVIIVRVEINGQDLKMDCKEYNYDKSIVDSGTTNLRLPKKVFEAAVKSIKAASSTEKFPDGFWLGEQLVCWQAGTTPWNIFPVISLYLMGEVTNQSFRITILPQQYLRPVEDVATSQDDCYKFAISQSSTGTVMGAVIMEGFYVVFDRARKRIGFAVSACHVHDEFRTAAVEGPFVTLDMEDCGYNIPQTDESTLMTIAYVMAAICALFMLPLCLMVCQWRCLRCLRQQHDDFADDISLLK

Compound | IC50 (Beta-secretase 1 [1]) | IC50 (Beta-secretase 1 [2])
CCCC[C@H]1CCN([C@@H](CCc2ccccc2)C(=O)N[C@@H](Cc2cc(F)cc(F)c2)[C@H](O)[C@H]2C[C@H](O)CN2)C1=O | 110 nM | 720 nM
COc1cccc(CNC[C@@H](O)[C@H](Cc2cc(F)cc(F)c2)NC(=O)[C@H](C)N2CC[C@H](C(C)C)C2=O)c1 | 170 nM | 240 nM
CCCC[C@H]1CCN([C@@H](C)C(=O)N[C@@H](Cc2cc(F)cc(F)c2)[C@H](O)[C@H]2C[C@H](O)CN2)C1=O | 96 nM | 1400 nM
CCCO[C@H]1CN[C@@H]([C@@H](O)[C@H](Cc2cc(F)cc(F)c2)NC(=O)[C@H](C)N2CC[C@H](C(C)C)C2=O)C1 | 160 nM | 390 nM
CC(C)C[C@H]1CCN([C@@H](CCc2ccccc2)C(=O)N[C@@H](Cc2cc(F)cc(F)c2)[C@H](O)[C@H]2C[C@@H](Oc3ccccn3)CN2)C1=O |  | 510 nM
CCC(C)[C@@]1(NC(C)=O)CCN([C@@H](CCc2ccccc2)C(=O)N[C@@H](Cc2cc(F)cc(F)c2)[C@H](O)[C@H]2C[C@H](N)CN2)C1=O (some centres undefined) | 50 nM | 190 nM
CCCC[C@H]1CCN([C@@H](CCc2ccccc2)C(=O)N[C@@H](Cc2cc(F)cc(F)c2)[C@H](O)[C@H]2C[C@@H](O)CN2)C1=O | 25 nM | 650 nM
CCC[C@@H](O)[C@H]1CCN([C@@H](CCc2ccccc2)C(=O)N[C@@H](Cc2cc(F)cc(F)c2)[C@H](O)[C@H]2C[C@H](O)CN2)C1=O | 16 nM | 220 nM
CCC(C)[C@@]1(NC(C)=O)CCN([C@@H](C)C(=O)N[C@@H](Cc2cc(F)cc(F)c2)[C@H](O)[C@H]2C[C@H](O)CN2)C1=O (some centres undefined) | 31 nM | > 660 nM
COC[C@H]1CCN([C@@H](CCc2ccccc2)C(=O)N[C@@H](Cc2cc(F)cc(F)c2)[C@H](O)CNCc2cccc(OC)c2)C1=O | 32 nM | 210 nM
CCC(C)[C@@]1(NC(C)=O)CCN([C@@H](CCc2ccccc2)C(=O)N[C@@H](Cc2cc(F)cc(F)c2)[C@H](O)[C@H]2Cc3ccccc3CN2)C1=O (some centres undefined) | 54 nM | 110 nM
CCC(C)[C@@]1(NC(C)=O)CCN([C@@H](CCc2ccccc2)C(=O)N[C@@H](Cc2cc(F)cc(F)c2)[C@H](O)CNCc2cccc(OC)c2)C1=O (some centres undefined) | 6.1 nM | 
CCC[C@@H](O)[C@H]1CCN([C@@H](CCc2ccccc2)C(=O)N[C@@H](Cc2cc(F)cc(F)c2)[C@H](O)CNCc2cccc(OC)c2)C1=O | 5.2 nM | 90 nM
CCC(C)[C@@]1(NC(C)=O)CCN([C@@H](CCc2ccccc2)C(=O)N[C@@H](Cc2cc(F)cc(F)c2)[C@H](O)[C@H]2C[C@@H](N)CN2)C1=O (some centres undefined) | 34 nM | 270 nM
CC(C)C[C@H]1CCN([C@@H](C)C(=O)N[C@@H](Cc2cc(F)cc(F)c2)[C@H](O)[C@H]2C[C@@H](Oc3ccccn3)CN2)C1=O |  | 330 nM
COc1cccc(CNC[C@@H](O)[C@H](Cc2cc(F)cc(F)c2)NC(=O)[C@H](CCc2ccccc2)N2CC[C@H](C(C)C)C2=O)c1 | 75 nM | 220 nM
CCCC[C@H]1CCN([C@@H](CCc2ccccc2)C(=O)N[C@@H](Cc2cc(F)cc(F)c2)[C@H](O)CNCc2cccc(OC)c2)C1=O | 38 nM | 350 nM
CCCC[C@H]1CCN([C@@H](CCc2ccccc2)C(=O)N[C@@H](Cc2cc(F)cc(F)c2)[C@H](O)[C@H]2C[C@@H](Oc3ccccn3)CN2)C1=O |  | 360 nM
CCC(C)[C@@]1(NC(C)=O)CCN([C@@H](CCc2ccccc2)C(=O)N[C@@H](Cc2cc(F)cc(F)c2)[C@H](O)[C@H]2C[C@@H](OCc3cccc(C(F)(F)F)c3)CN2)C1=O (some centres undefined) | 2.7 nM | 71 nM
CCCO[C@H]1CN[C@@H]([C@@H](O)[C@H](Cc2cc(F)cc(F)c2)NC(=O)[C@H](CCc2ccccc2)N2CC[C@H](COC)C2=O)C1 | 23 nM | 89 nM

Continued, values first:

IC50 (Beta-secretase 1 [1]) | IC50 (Beta-secretase 1 [2]) | Compound
3 nM | 4.2 nM | CCC(C)[C@@]1(NC(C)=O)CCN([C@@H](CCc2ccccc2)C(=O)N[C@@H](Cc2cc(F)cc(F)c2)[C@H](O)[C@H]2C[C@@H](OCc3cccc(C#N)c3)CN2)C1=O (some centres undefined)
11 nM | 10 nM | COc1cccc(CNC[C@@H](O)[C@H](Cc2cc(F)cc(F)c2)NC(=O)[C@H](CCc2ccccc2)N2CC[C@@](CC3CC3)(NC(C)=O)C2=O)c1
4.2 nM | 20 nM | CCC(C)[C@@]1(NC(C)=O)CCN([C@@H](CCc2ccccc2)C(=O)N[C@@H](Cc2cc(F)cc(F)c2)[C@H](O)[C@H]2Cc3cccc(OC)c3CN2)C1=O (some centres undefined)
6.5 nM | 29 nM | CCC(C)[C@@]1(NC(C)=O)CCN([C@@H](CCc2ccccc2)C(=O)N[C@@H](Cc2cc(F)cc(F)c2)[C@H](O)[C@H]2C[C@@H](O)CN2)C1=O (some centres undefined)
68 nM | 27 nM | CCC[C@@H](O)[C@H]1CCN([C@@H](C)C(=O)N[C@@H](Cc2cc(F)cc(F)c2)[C@H](O)CNCc2cccc(OC)c2)C1=O
70 nM | 55 nM | CCCO[C@H]1CN[C@@H]([C@@H](O)[C@H](Cc2cc(F)cc(F)c2)NC(=O)[C@H](C)N2CC[C@H]([C@H](O)CCC)C2=O)C1
 | 12 nM | CCC(C)[C@@]1(NC(C)=O)CCN([C@@H](CCc2ccccc2)C(=O)N[C@@H](Cc2cc(F)cc(F)c2)[C@H](O)[C@H]2C[C@@H](OCc3ccccc3)CN2)C1=O (some centres undefined)
2.6 nM | 1.4 nM | CCC(C)[C@@]1(NC(C)=O)CCN([C@@H](CCc2ccccc2)C(=O)N[C@@H](Cc2cc(F)cc(F)c2)[C@H](O)[C@H]2C[C@@H](Oc3ccccc3)CN2)C1=O (some centres undefined)
89 nM | 67 nM | COc1cccc(CNC[C@@H](O)[C@H](Cc2cc(F)cc(F)c2)NC(=O)[C@H](C)N2CC[C@H](CC(C)C)C2=O)c1
5.7 nM | 69 nM | CCCO[C@H]1CN[C@@H]([C@@H](O)[C@H](Cc2cc(F)cc(F)c2)NC(=O)[C@H](CCc2ccccc2)N2CC[C@H](CC(C)C)C2=O)C1
4.7 nM | 48 nM | CCCO[C@H]1CN[C@@H]([C@@H](O)[C@H](Cc2cc(F)cc(F)c2)NC(=O)[C@H](CCc2ccccc2)N2CC[C@H]([C@H](O)CCC)C2=O)C1
8.6 nM | 9.5 nM | CC(=O)N[C@]1(CC(C)C)CCN([C@@H](CCc2ccccc2)C(=O)N[C@@H](Cc2cc(F)cc(F)c2)[C@H](O)[C@H]2Cc3ccccc3CN2)C1=O
2.6 nM | 2.1 nM | CCC(C)[C@@]1(NC(C)=O)CCN([C@@H](CCc2ccccc2)C(=O)N[C@@H](Cc2cc(F)cc(F)c2)[C@H](O)[C@H]2C[C@@H](Oc3ccccn3)CN2)C1=O (some centres undefined)
10 nM | 8.9 nM | CCC(C)[C@@]1(NC(C)=O)CCN([C@@H](CCc2ccccc2)C(=O)N[C@@H](Cc2cc(F)cc(F)c2)[C@H](O)[C@H]2C[C@@H](OCc3ccc(F)cc3)CN2)C1=O (some centres undefined)
46 nM | 27 nM | COc1cccc(CNC[C@@H](O)[C@H](Cc2cc(F)cc(F)c2)NC(=O)[C@H](C)N2CC[C@@](CC3CC3)(NC(C)=O)C2=O)c1
1.5 nM | 1.3 nM | CCC(C)[C@@]1(NC(C)=O)CCN([C@@H](CCc2ccccc2)C(=O)N[C@@H](Cc2cc(F)cc(F)c2)[C@H](O)[C@H]2C[C@@H](OCc3ccccn3)CN2)C1=O (some centres undefined)
1.4 nM | 2 nM | CCC(C)[C@@]1(NC(C)=O)CCN([C@@H](CCc2ccccc2)C(=O)N[C@@H](Cc2cc(F)cc(F)c2)[C@H](O)[C@H]2C[C@@H](OCc3cccnc3)CN2)C1=O (some centres undefined)
